According to PubChem BioAssay AID330 (DTP/NCI, 2004):
Several values for one entry are separate records, joined by “and”; a condition that tells them apart may be missing. Identical values can stand only once. Toxic doses and inconclusive results are not listed. Rule for the calls: active = survival T/C of 150% or more; inactive = T/C below 125% in these data. Square brackets hold non-standard residues; d marks the D form. Peptide text beside a SMILES is read from it. Abu = CC[CH](N)C(=O)O

Tested on: P388 leukemia ip, CD2F1 mice, survival T/C
Assay: NCI In Vivo Anticancer Drug Screen. Data for tumor model P388 Leukemia (intraperitoneal) in CD2F1 (CDF1) mice
Settings: endpoint: median survival time, higher = longer survival
Procedure, shortened: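 Mice carrying the transplanted tumor received test compound or vehicle. Survival was recorded in each group, and the value is the treated-group measurement divided by that of the vehicle-treated control group.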

[1] = dose: 50.0 mg/kg/injection, schedule: Q01DX005 (ip), vehicle: Klucel (hydroxypropylcellulose) (HPC)
[2] = dose: 100.0 mg/kg/injection, schedule: Q01DX005 (ip), vehicle: Klucel (hydroxypropylcellulose) (HPC)
[3] = dose: 200.0 mg/kg/injection, schedule: Q01DX005 (ip), vehicle: Klucel (hydroxypropylcellulose) (HPC)
[4] = dose: 50.0 mg/kg/injection, schedule: Q01DX009 (ip), vehicle: saline with Tween-80
[5] = dose: 100.0 mg/kg/injection, schedule: Q01DX009 (ip), vehicle: saline with Tween-80
[6] = dose: 200.0 mg/kg/injection, schedule: Q01DX009 (ip), vehicle: saline with Tween-80
[7] = dose: 50.0 mg/kg/injection, schedule: Q01DX009 (ip), vehicle: saline
[8] = dose: 12.5 mg/kg/injection, schedule: Q01DX009 (ip), vehicle: saline with Tween-80
[9] = dose: 25.0 mg/kg/injection, schedule: Q01DX009 (ip), vehicle: saline with Tween-80
[10] = dose: 50.0 mg/kg/injection, schedule: Q01DX005 (ip), vehicle: saline with Tween-80
[11] = dose: 100.0 mg/kg/injection, schedule: Q01DX005 (ip), vehicle: saline with Tween-80
[12] = dose: 60.0 mg/kg/injection, schedule: Q01DX005 (ip), vehicle: saline
[13] = dose: 120.0 mg/kg/injection, schedule: Q01DX005 (ip), vehicle: saline
[14] = dose: 240.0 mg/kg/injection, schedule: Q01DX005 (ip), vehicle: saline

Measured: T/C

CC(C)C1CCC2(C)C(CCC3C4(C)CCCC32OC4=O)C1 (stereo not drawn)
inactive: [1] 104 % of control | [2] 99 % of control | [3] 101 % of control

CCOc1cc2c(cc1C(C)c1ccc(OC)c(OC)c1)OCO2 (stereo not drawn)
inactive: [1] 100 % of control | [2] 105 % of control | [3] 107 % of control

BrC1/C=C\CC(Br)/C=C\C1 (stereo not drawn)
inactive: [4] 110 % of control | [5] 117 % of control | [6] 115 % of control

C[N+](C)(C)CCC(=O)c1ccccc1
inactive: dose: 12.5 mg/kg/injection, schedule: Q01DX009 (ip), vehicle: Klucel (hydroxypropylcellulose) (HPC) 99 % of control | dose: 25.0 mg/kg/injection, schedule: Q01DX009 (ip), vehicle: Klucel (hydroxypropylcellulose) (HPC) 96 % of control

CC[N+](CC)(CC)CC(=O)c1ccc(Br)cc1
inactive: dose: 12.5 mg/kg/injection, schedule: Q01DX009 (ip), vehicle: saline 100 % of control | dose: 25.0 mg/kg/injection, schedule: Q01DX009 (ip), vehicle: saline 104 % of control | [7] 95 % of control

COCCO[Si](OCCOC)(OCCOC)OCCOC
inactive: dose: 50.0 mg/kg/injection, schedule: Q01DX009 (ip), vehicle: Klucel (hydroxypropylcellulose) (HPC) 99 % of control | dose: 100.0 mg/kg/injection, schedule: Q01DX009 (ip), vehicle: Klucel (hydroxypropylcellulose) (HPC) 87 % of control

O=c1[nH]c2cc([N+](=O)[O-])ccc2nc1/C=C(\O)c1ccc(F)cc1
inactive: dose: 60.0 mg/kg/injection, schedule: Q01DX005 (ip), vehicle: Klucel + Tween-80 102 % of control | dose: 120.0 mg/kg/injection, schedule: Q01DX005 (ip), vehicle: Klucel + Tween-80 86 % of control

CC1(/C=C/c2ccccc2)OCCO1
inactive: [4] 99 % of control | [5] 98 % of control | [6] 102 % of control

CSCOC/C=C(\C)CCC=C(C)C
inactive: [4] 98 % of control | [5] 100 % of control | [6] 114 % of control

C[C@]12CC[C@H](O)CC1=CC[C@@H]1[C@@H]2CC[C@]2(C)c3nc4ccccc4cc3C[C@@H]12
inactive: [8] 104 % of control | dose: 12.5 mg/kg/injection, schedule: Q04DX003 (ip), vehicle: saline with Tween-80 100 % of control | [9] 100 % of control | dose: 25.0 mg/kg/injection, schedule: Q04DX003 (ip), vehicle: saline with Tween-80 100 % of control | [4] 95 % of control | dose: 50.0 mg/kg/injection, schedule: Q04DX003 (ip), vehicle: saline with Tween-80 90 % of control

O=C1C=CN(C2OC(CO)C(O)C2O)C(=O)C1 (stereo not drawn)
inactive: dose: 11.0 mg/kg/injection, schedule: Q01DX009 (ip), vehicle: saline 117 % of control | dose: 16.0 mg/kg/injection, schedule: Q01DX009 (ip), vehicle: saline 122 % of control | dose: 22.0 mg/kg/injection, schedule: Q01DX009 (ip), vehicle: saline 120 % of control and 122 % of control and 124 % of control | dose: 33.0 mg/kg/injection, schedule: Q01DX009 (ip), vehicle: saline 109 % of control and 119 % of control and 120 % of control | [7] 118 % of control and 124 % of control

CC(C)C1CC2CCC3C(C)(C(=O)O)CCCC3(C)C2CC1CO (stereo not drawn)
inactive: dose: 100.0 mg/kg/injection, schedule: Q04DX003 (ip), vehicle: saline with Tween-80 100 % of control | dose: 200.0 mg/kg/injection, schedule: Q04DX003 (ip), vehicle: saline with Tween-80 91 % of control

C/C=C1\NC(=O)c2csc(n2)C(C(C)C)NC(=O)c2csc(n2)/C(=C/C)NC(=O)C(C(C)O)NC(=O)c2csc(n2)-c2ccc(-c3nc(-c4nc(C(=O)NC(C(=O)NCC(C)O)C(C)O)cs4)cs3)nc2-c2csc1n2 (stereo not drawn)
inactive: dose: 0.25 mg/kg/injection, schedule: Q01DX009 (ip), vehicle: Klucel (hydroxypropylcellulose) (HPC) 107 % of control | dose: 0.5 mg/kg/injection, schedule: Q01DX009 (ip), vehicle: Klucel (hydroxypropylcellulose) (HPC) 112 % of control | dose: 1.0 mg/kg/injection, schedule: Q01DX009 (ip), vehicle: Klucel (hydroxypropylcellulose) (HPC) 104 % of control | dose: 2.0 mg/kg/injection, schedule: Q01DX009 (ip), vehicle: Klucel (hydroxypropylcellulose) (HPC) 103 % of control

O=C1c2ccccc2C(=O)C1(c1ccccn1)[N+](=O)[O-]
inactive: dose: 60.0 mg/kg/injection, schedule: Q01DX005 (ip), vehicle: saline with Tween-80 110 % of control | dose: 120.0 mg/kg/injection, schedule: Q01DX005 (ip), vehicle: saline with Tween-80 113 % of control

COc1ccc2c(N)c3cccc[n+]3cc2c1OC
inactive: dose: 6.25 mg/kg/injection, schedule: Q04DX003 (ip), vehicle: water 106 % of control and 108 % of control | dose: 12.5 mg/kg/injection, schedule: Q04DX003 (ip), vehicle: water 116 % of control and 121 % of control | dose: 25.0 mg/kg/injection, schedule: Q04DX003 (ip), vehicle: water 118 % of control and 122 % of control | dose: 50.0 mg/kg/injection, schedule: Q04DX003 (ip), vehicle: water 103 % of control

C1=C[N-]c2c3c(ccc2=C1)=CC=C[N-]3.C1=C[N-]c2c3c(ccc2=C1)=CC=C[N-]3.O=[N+]([O-])O.[Cu+]
inactive: dose: 1.56 mg/kg/injection, schedule: Q04DX002 (ip), vehicle: saline 100 % of control | dose: 3.12 mg/kg/injection, schedule: Q04DX002 (ip), vehicle: saline 99 % of control and 98 % of control | dose: 6.25 mg/kg/injection, schedule: Q04DX002 (ip), vehicle: saline 99 % of control and 110 % of control and 98 % of control | dose: 12.5 mg/kg/injection, schedule: Q04DX002 (ip), vehicle: saline 120 % of control and 97 % of control | dose: 25.0 mg/kg/injection, schedule: Q04DX002 (ip), vehicle: saline 111 % of control and 97 % of control

CCC(N)C(=O)NC(C(N)=O)C(C)C (stereo not drawn) (H-[Abu]-Val-NH2; configuration not given here)
inactive: dose: 50.0 mg/kg/injection, schedule: Q01DX005 (ip), vehicle: saline 102 % of control | dose: 100.0 mg/kg/injection, schedule: Q01DX005 (ip), vehicle: saline 101 % of control | dose: 200.0 mg/kg/injection, schedule: Q01DX005 (ip), vehicle: saline 104 % of control

O=C(CSC1CCc2ccccc21)N/N=C/c1ccco1 (stereo not drawn)
inactive: [1] 98 % of control | [2] 100 % of control | [3] 88 % of control

CCN1C[C@]2(COC)[C@H](O)C[C@H](OC)[C@]34C1[C@H]([C@H](OC)[C@H]23)[C@]1(OC(C)=O)[C@H]2[C@@H](OC(=O)c3ccccc3)[C@](O)(C[C@H]24)[C@@H](OC)[C@@H]1O
inactive: dose: 0.01 mg/kg/injection, schedule: Q01DX009 (ip), vehicle: saline 113 % of control and 88 % of control

CCNc1ccc2c(-c3ccccc3C(=O)O)c3ccc(=[N+](CC)CC)cc-3oc2c1
inactive: [10] 105 % of control | [11] 95 % of control

COC(=O)C1(c2ccccc2)OP2(N(C)C)(OC1(C(=O)OC)c1ccccc1)N(C)CCN2C (stereo not drawn)
inactive: dose: 50.0 mg/kg/injection, schedule: Q01DX005 (ip), vehicle: saline + Tween-80 + alcohol 104 % of control | [10] 102 % of control | dose: 100.0 mg/kg/injection, schedule: Q01DX005 (ip), vehicle: saline + Tween-80 + alcohol 100 % of control | [11] 102 % of control | dose: 200.0 mg/kg/injection, schedule: Q01DX005 (ip), vehicle: saline + Tween-80 + alcohol 100 % of control | dose: 200.0 mg/kg/injection, schedule: Q01DX005 (ip), vehicle: saline with Tween-80 105 % of control

COc1ccc(CCNC(=O)Cc2ccc(OC)c(OCc3ccccc3)c2)cc1OC
inactive: dose: 25.0 mg/kg/injection, schedule: Q01DX009 (ip), vehicle: other 95 % of control | dose: 50.0 mg/kg/injection, schedule: Q01DX009 (ip), vehicle: other 95 % of control | dose: 100.0 mg/kg/injection, schedule: Q01DX009 (ip), vehicle: other 89 % of control | dose: 200.0 mg/kg/injection, schedule: Q01DX009 (ip), vehicle: other 86 % of control | dose: 400.0 mg/kg/injection, schedule: Q01DX009 (ip), vehicle: other 89 % of control

CN(C)c1nc(NC(=O)NC(=O)c2c(F)cccc2F)nc(N(C)C)n1
inactive: dose: 6.25 mg/kg/injection, schedule: Q01DX009 (ip), vehicle: saline with Tween-80 101 % of control | [8] 111 % of control | [9] 104 % of control

CC(C)(c1ccc(OCOC(=O)NN)cc1)c1ccc(OCOC(=O)NN)cc1
inactive: [4] 95 % of control | [5] 102 % of control

CN(C)c1ccccc1[Si](C)(C)N(C)C
inactive: [12] 103 % of control | [13] 103 % of control | [14] 106 % of control

O=C(CC(O)c1cccnc1)CC(O)c1cccnc1 (stereo not drawn)
inactive: [12] 100 % of control | [13] 114 % of control | [14] 114 % of control
